Reference: patent publication US11110105B2, “Compounds, composition and uses thereof for treating cancer” (INSTITUT GUSTAVE ROUSSY, priority 2017, dated 2021)

Columns and labels:
[1] = test system: B16F10 WT tumor; assay: Tumor challenge, B16F10 WT in immunocompetent C57BL/6 mice; assay type: in vivo, mouse; conditions: 18 mg/kg intraperitoneally, days 5, 10 and 15 (FIG. 11D)
Procedure: (A) Experimental settings. Growth of (B) sarcoma MCA205 or (C) melanoma B16F10 cells that both stably express the globin-SL8-intron construct or (D) MCA205 Wild Type (WT) or (E) B16F10 WT cells that were subcutaneously inoculated on the flank of immunocompetent C57BL/6 mice injected intraperitoneally with 12 mg/kg or 18 mg/kg of isoginkgetin at days 5, 10 and 15 after inoculation. Tumor size was assessed every 3 to 4 days until reaching the established ethical endpoints. Each line represents the tumor size in area (mm^2) of 6 mice in each group. Size in area (mm^2) of (F) MCA205 globin-SL8-intron, (G) B16F10 globin-SL8-intron, (H) MCA205 WT or (I) B16F10 WT tumors subcutaneously inoculated on the flank of immunodeficient Nu/Nu Nude mice injected intraperitoneally with 18 mg/kg of isoginkgetin at days 5, 10 and 15 after inoculation. Data are presented at the day before the endpoints are reached.
Data are given as mean ±SEM. *P<0.05, **P<0.01, ***P<0.001 (unpaired student t test). […] Tumor size was assessed every 3 to 4 days until reaching the established ethical endpoints. […]
The SL8 peptide has been widely shown to be highly immunogenic in vivo. […] At days 5, 10 and 15 after tumor inoculation, the mice were injected intraperitoneally with a define dose of isoginkgetin, and the tumor growth was monitored (FIG. 9A). […]

[2] = test system: B16F10 mouse melanoma cell line; assay: MTT assay on B16F10 cell line; assay type: cell-based; conditions: B16F10 WT cells, 15 μM or 35 μM
Procedure: (§1) RNA was extracted and qRT-PCR was performed with primers amplifying the unspliced (intron) and the spliced (exon) globin-SL8-intron RNA. Data are given as mean ±SEM of the ratio of 2^−ΔΔCt intron and 2^−ΔΔCt exon of at least three independent experiments. […] Data are express as mean ±SEM of the percentage of viable cells compared to the control condition of at least three independent experiments. *P<0.05, **P<0.01, ***P<0.001 (unpaired student t test).
(§2) MCA205 mouse sarcoma cell line is cultured at 37° C. under 5% CO2 in RPMI 1640 medium (Life Technologies) in the presence of 1% glutamine, 1% sodium pyruvate, 1% non-essential amino-acids, 1% penicillin/streptomycin and 10% FBS (Life Technologies) under standard conditions. B16F10 mouse melanoma cell line, MRC5 human fibroblast cell line and A375 human melanoma cell line are cultured at 37° C. under 5% CO2 in DMEM medium (Life Technologies) containing 1% glutamine, 1% penicillin/streptomycin and 10% FCS under standard conditions. A549 human lung carcinoma cell line is cultured at 37° C. under 5% CO2 in DMEM/F12+Glutamax I in the presence of 1% Hepes, 1% sodium pyruvate and 10% FBS under standard conditions. Stable MCA205-Globin-SL8-intron cell line are cultured under the same condition as MCA205 cell line with additional 2 mg/ml G418 (geneticin from Life Technologies) for selection. Stable B16F10-Globin-SL8-intron cell line are cultured under the same condition as B16F10 cell line with additional 2 mg/ml G418 (geneticin from Life Technologies) for selection. The SL8/Kb-specific (B3Z) T-cell reporter hybridoma are cultured at 37° C. under 5% CO2 in RPMI 1640 medium (Life Technologies) in the presence of 1% glutamine, 0.1% β-galactosidase, 1% penicillin/streptomycin and 10% FCS under standard conditions.
(§3) MTT assay on MCA205 and B16F10 cell lines treated with 6.25 μM, 15 μM or 25 μM of isoginkgetin. Dare are given as the mean of the percentage of cell viability ±SEM from at least three independent experiments.

[3] = MTT assay on B16F10 cell line; assay type: cell-based, mouse; conditions: mouse, B16F10 melanoma cells, MTT, read-out: % cell viability (±SEM)
Procedure: as §1, §2, §3

[4] = MTT assay on A375 cell line; assay type: cell-based; conditions: human, A375 melanoma cells, read-out: % cell viability (±SEM)
Procedure: MCA205 mouse sarcoma cell line is cultured at 37° C. under 5% CO2 in RPMI 1640 medium (Life Technologies) in the presence of 1% glutamine, 1% sodium pyruvate, 1% non-essential amino-acids, 1% penicillin/streptomycin and 10% FBS (Life Technologies) under standard conditions. B16F10 mouse melanoma cell line, MRC5 human fibroblast cell line and A375 human melanoma cell line are cultured at 37° C. under 5% CO2 in DMEM medium (Life Technologies) containing 1% glutamine, 1% penicillin/streptomycin and 10% FCS under standard conditions. A549 human lung carcinoma cell line is cultured at 37° C. under 5% CO2 in DMEM/F12+Glutamax I in the presence of 1% Hepes, 1% sodium pyruvate and 10% FBS under standard conditions. Stable MCA205-Globin-SL8-intron cell line are cultured under the same condition as MCA205 cell line with additional 2 mg/ml G418 (geneticin from Life Technologies) for selection. Stable B16F10-Globin-SL8-intron cell line are cultured under the same condition as B16F10 cell line with additional 2 mg/ml G418 (geneticin from Life Technologies) for selection. The SL8/Kb-specific (B3Z) T-cell reporter hybridoma are cultured at 37° C. under 5% CO2 in RPMI 1640 medium (Life Technologies) in the presence of 1% glutamine, 0.1% β-galactosidase, 1% penicillin/streptomycin and 10% FCS under standard conditions. […]

For COc1ccc(-c2cc(=O)c3c(OC)cc(OP(=O)([O-])[O-])c(-c4cc(-c5cc(=O)c6c(OC)cc(OP(=O)([O-])[O-])cc6o5)ccc4OC)c3o2)cc1.[Na+].[Na+].[Na+].[Na+] [IM2P2], the tumor growth [1] was “did not impact tumor growth” and the “toxicity (MTT, percentage of viable cells compared to control)” value [2] was “no toxicity”.
For COc1ccc(-c2cc(=O)c3c(O)cc(O)c(-c4cc(-c5cc(=O)c6c(O)cc(O)cc6o5)ccc4OC)c3o2)cc1 [Isoginkgetin, isoginkgetin], the viability at 6.25 µM ([3]; B16F10, 6.25 μM) was 86.5%, the viability at 15 µM ([3]; B16F10, 15 μM) was 58.6% and the viability at 25 µM ([3]; B16F10, 25 μM) was 51.2%. The viability at 2.5 µM ([4]; A375, 2.5 μM) was 100% and the viability at 6.25 µM ([4]; A375, 6.25 μM) was 100%.
